Laboratory results: EP0262903A2, “New acyl derivatives of 20-modified tylosin and desmycosin compounds” (priority 1986, dated 1988)
Converted amounts (≈) assume the structure as drawn. Where two headings read alike, the source gives them in different places.

Legend:
[1] = test system: Streptococcus pyogenes C203; assay: ED50 in mice experimentally infected with S. pyogenes C203; assay type: in vivo; settings: two doses given 1 and 4 hours post-infection, dose protecting 50% of the test animals
Procedure: The formula 1 compounds have shown in vivo antimicrobial activity against experimentally-induced infections in laboratory animals. When two doses of test compound were administered to mice experimentally infected with S. pyogenes C203, the activity observed was measured as an ED₅₀ value [effective dose in mg/kg to protect 50% of the test animals: see Warren Wick, et 5 al., J. Bacteriol. 81, 233-235 (1961)].

[2] = test system: Pasteurella hemolytica 23C; assay: MIC, conventional broth-dilution microtiter test; assay type: cell-based
Procedure: (§1) The MIC's in Table II were determined by standard agar-dilution assays. The MIC's in Table III were obtained using conventional broth-dilution microtiter tests.

[3] = test system: Pasteurella multocida 22A; assay: MIC, conventional broth-dilution microtiter test; assay type: cell-based
Procedure: as §1

[4] = test system: Pasteurella multocida 40G; assay: MIC, conventional broth-dilution microtiter test; assay type: cell-based
Procedure: as §1

[5] = test system: Mycoplasma synoviae 40A; assay: MIC, conventional broth-dilution microtiter test; assay type: cell-based; settings: Mycoplasmopsis synoviae
Procedure: as §1

[6] = test system: Mycoplasma gallisepticum 29C; assay: MIC, conventional broth-dilution microtiter test; assay type: cell-based; settings: Mycoplasmoides gallisepticum
Procedure: as §1

[7] = test system: Mycoplasma gallisepticum 15E; assay: MIC, conventional broth-dilution microtiter test; assay type: cell-based; settings: Mycoplasmoides gallisepticum
Procedure: as §1

[8] = test system: Pasteurella multocida 60A; assay: MIC, conventional broth-dilution microtiter test; assay type: cell-based; settings: Avian isolate
Procedure: as §1

[9] = test system: Mycoplasma hyopneumoniae S5972; assay: MIC, conventional broth-dilution microtiter test; assay type: cell-based; settings: Mesomycoplasma hyopneumoniae
Procedure: as §1

[10] = test system: Pasteurella multocida 17E; assay: MIC, conventional broth-dilution microtiter test; assay type: cell-based; settings: Bovine isolate
Procedure: as §1

[11] = test system: Staphylococcus aureus; assay: MIC, conventional broth-dilution microtiter test; assay type: cell-based
Procedure: as §1

[12] = test system: Pasteurella hemolytica 22C; assay: MIC, conventional broth-dilution microtiter test; assay type: cell-based
Procedure: as §1

[13] = test system: Streptococcus sp. 19F; assay: MIC, conventional broth-dilution microtiter test; assay type: cell-based
Procedure: as §1

[14] = test system: Bordetella bronchiseptica; assay: MIC, conventional broth-dilution microtiter test; assay type: cell-based
Procedure: as §1

[15] = test system: Pasteurella multocida 68C; assay: MIC, conventional broth-dilution microtiter test; assay type: cell-based
Procedure: as §1

[16] = test system: Pasteurella hemolytica 41D; assay: MIC, conventional broth-dilution microtiter test; assay type: cell-based
Procedure: as §1

[17] = test system: Mycoplasma hyorhinis 29E; assay: MIC, conventional broth-dilution microtiter test; assay type: cell-based
Procedure: as §1

[18] = test system: Mycoplasma gallisepticum 36H; assay: MIC, conventional broth-dilution microtiter test; assay type: cell-based; settings: Mycoplasmoides gallisepticum
Procedure: as §1

[19] = test system: Escherichia coli EC14; assay: MIC, standard agar-dilution assay; assay type: cell-based; settings: Escherichia coli EC14; agar dilution; read-out: MIC
Procedure: as §1

[20] = test system: Staphylococcus aureus S13E; assay: MIC, standard agar-dilution assay; assay type: cell-based
Procedure: as §1

[21] = test system: Haemophilus influenzae C.L.; assay: MIC, standard agar-dilution assay; assay type: cell-based; settings: Haemophilus influenzae C.L.; Ampicillin-sensitive strain; agar dilution; read-out: MIC
Procedure: as §1

[22] = test system: Streptococcus faecalis X66; assay: MIC, standard agar-dilution assay; assay type: cell-based; settings: Enterococcus faecalis; Streptococcus faecalis X66; agar dilution; read-out: MIC
Procedure: as §1

[23] = test system: Streptococcus pyogenes C203; assay: MIC, standard agar-dilution assay; assay type: cell-based; settings: Streptococcus pyogenes C203; agar dilution; read-out: MIC
Procedure: as §1

[24] = test system: Haemophilus influenzae 76; assay: MIC, standard agar-dilution assay; assay type: cell-based; settings: Haemophilus influenzae 76; Ampicillin-resistant strain; agar dilution; read-out: MIC
Procedure: as §1

[25] = test system: Pseudomonas aeruginosa X239; assay: MIC, standard agar-dilution assay; assay type: cell-based; settings: Pseudomonas aeruginosa X239; agar dilution; read-out: MIC
Procedure: as §1

[26] = test system: Streptococcus pneumoniae Park I; assay: MIC, standard agar-dilution assay; assay type: cell-based; settings: Streptococcus pneumoniae Park I; agar dilution; read-out: MIC
Procedure: as §1

[27] = test system: Staphylococcus aureus V41; assay: MIC, standard agar-dilution assay; assay type: cell-based; settings: Staphylococcus aureus V41; Penicillin-resistant strain; agar dilution; read-out: MIC
Procedure: as §1

[28] = test system: Staphylococcus aureus X400; assay: MIC, standard agar-dilution assay; assay type: cell-based; settings: Staphylococcus aureus X400; Methicillin-resistant strain; agar dilution; read-out: MIC
Procedure: as §1

[29] = test system: Streptococcus faecalis 2041; assay: MIC, standard agar-dilution assay; assay type: cell-based; settings: Enterococcus faecalis; Streptococcus faecalis 2041; agar dilution; read-out: MIC
Procedure: as §1

[30] = test system: Staphylococcus epidermidis 222; assay: MIC, standard agar-dilution assay; assay type: cell-based; settings: Staphylococcus epidermidis 222; agar dilution; read-out: MIC
Procedure: as §1

[31] = test system: Staphylococcus epidermidis EPI1; assay: MIC, standard agar-dilution assay; assay type: cell-based; settings: Staphylococcus epidermidis EPI1; agar dilution; read-out: MIC
Procedure: as §1

[32] = test system: Klebsiella pneumoniae X68; assay: MIC, standard agar-dilution assay; assay type: cell-based; settings: Klebsiella pneumoniae X68; agar dilution; read-out: MIC
Procedure: as §1

[33] = test system: Staphylococcus aureus X1.1; assay: MIC, standard agar-dilution assay; assay type: cell-based; settings: Staphylococcus aureus X1.1; agar dilution; read-out: MIC
Procedure: as §1

CCC1OC(=O)CC(O)C(C)C(OC2OC(C)C(O)C(N(C)C)C2O)C(CCOc2ccccc2)CC(C)C(=O)C=CC(C)=CC1COC1OC(C)C(OC(C)=O)C(OC)C1OC (stereo not shown) [Compound 2, 4ʹʹ-O-Acetyl-20-DH-20-O-phenyl-desmycosin]
ED50 ([1]; C203, mice, oral, read-out: ED50 Oral): 10.9 mg/kg
ED50 ([1]; C203, sc, mice, subcutaneous, read-out: ED50 Subcutaneous): 4.46 mg/kg
MIC [2]: 50 µg/mL (≈ 56 µM)
MIC [3]: > 50 µg/mL
MIC [4]: 50 µg/mL (≈ 56 µM)
MIC [5]: 3.12 µg/mL (≈ 3.5 µM)
MIC [6]: 0.78 µg/mL (≈ 0.874 µM)
MIC [7]: 50 µg/mL (≈ 56 µM)
MIC [8]: > 50 µg/mL
MIC [9]: 25 µg/mL (≈ 28 µM)
MIC [10]: 50 µg/mL (≈ 56 µM)
MIC [11]: 1.56 µg/mL (≈ 1.75 µM)
MIC [12]: > 50 µg/mL
MIC [13]: 12.5 µg/mL (≈ 14 µM)
MIC [14]: > 50 µg/mL
MIC [15]: 25 µg/mL (≈ 28 µM)
MIC [16]: > 50 µg/mL
MIC [17]: 50 µg/mL (≈ 56 µM)
MIC [18]: 50 µg/mL (≈ 56 µM)
MIC [19]: > 128 µg/mL
MIC [20]: 2 µg/mL (≈ 2.24 µM)
MIC [21]: 128 µg/mL (≈ 143 µM)
MIC [22]: 16 µg/mL (≈ 17.9 µM)
MIC [23]: 1 µg/mL (≈ 1.12 µM)
MIC [24]: 128 µg/mL (≈ 143 µM)
MIC [25]: > 128 µg/mL
MIC [26]: 2 µg/mL (≈ 2.24 µM)
MIC [27]: 2 µg/mL (≈ 2.24 µM)
MIC [28]: 2 µg/mL (≈ 2.24 µM)
MIC [29]: 32 µg/mL (≈ 35.9 µM)
MIC [30]: 1 µg/mL (≈ 1.12 µM)
MIC [31]: 2 µg/mL (≈ 2.24 µM)
MIC [32]: > 128 µg/mL
MIC [33]: 2 µg/mL (≈ 2.24 µM)
